Measured values: paper PMC10776578, “Epstein-Barr virus-driven B cell lymphoma mediated by a direct LMP1-TRAF6 complex” (Nature Communications, 2024)
Positions count from the first letter of the chain named. “Also recorded” adds a separate entry of the source. Read-outs that look alike come from different tables or passages of the source. No end group written: not given here.

B1: CD40: recombinant GST-CD40_216-277 (protein)
chain: KKVAKKPTNKAPHPKQEPQEINFPDDLPGSNTAAPVQETLHGCQPVTQEDGKESRISVQERQ
modifications: left off: GST, end not stated, kept
B2: CD40 E235Q (protein)
chain: B1 chain with E20Q
modifications: left off: GST, end not stated, kept
B3: GST-LMP1_(181-386) A204xAxA (domain or fragment)
chain: LIWMYYHGQRHSDEHHHDDSLPHAQAAADDSGHESDSNSNEGRHHLLVSGAGDGPPLCSQNLGAPGGGPDNGPQDPDNTDDNGPQDPDNTDDNGPHDPLPQDPDNTDDNGPQDPDNTDDNGPHDPLPHSPSDSAGNDGGPPQLTEEVENKGGDQGPPLMTDGGGGHSHDSGHGGGDPHLPTLLLGSSGSGGDDDDPHGPVQLSYYD
notes: also called A204xAxA mutant; CTAR1 mutant; source: E. coli DH5α or BL21 Codon Plus RIPL, purified (glutathione Sepharose 4B)
B4: LMP1 Y384F (protein)
chain: B3 chain with A24P, A26Q, A28T, Y204F
modifications: left off: GST, end not stated, kept
B5: LMP1 Q381E (protein)
chain: B3 chain with A24P, A26Q, A28T, Q201E
modifications: left off: GST, end not stated, kept
B6: LMP1 Y384D (protein)
chain: B3 chain with A24P, A26Q, A28T, Y204D
modifications: left off: GST, end not stated, kept
B7: GST-LMP1_(181-386) G378A (domain or fragment)
chain: B3 chain with A24P, A26Q, A28T, G198A
notes: source: E. coli DH5α or BL21 Codon Plus RIPL, purified (glutathione Sepharose 4B)

Columns and labels:
[1] = tested on: His-TRAF6_310-522 (TRAF6); experiment: AlphaScreen PPI assay, TRAF6 binding to GST-LMP1/CD40/RANK proteins; set-up: species or system human; details: for Bmax (best-fit value): AlphaScreen signal
Method: AlphaScreen experiments were performed in 96- or 384-well plates (Perkin Elmer, OptiPlate). In both assay formats, His-TRAF and GST-LMP1, GST-CD40, or GST-RANK proteins were incubated together in 40 µL of PBS (protein concentrations were calculated to the final reaction volume of 60 µL) supplemented with 0.5% BSA (Sigma, #A7030) and 0.1% Tween-20 (AppliChem, #A4974), for 1 h at room temperature (RT). If not indicated otherwise, standard protein concentrations were 300 nM for His-TRAF proteins and 100 nM for GST-LMP1 proteins. Ni-NTA-acceptor (Perkin Elmer, #6760619 C) and GST-acceptor (Perkin Elmer, # 6765300) beads were added each to a final concentration of 1–4 µg per mL in a final reaction volume of 60 µL and incubated for 1 h at RT in the dark. AlphaScreen PPI signals were measured in a CLARIOstar reader (BMG Labtech GmbH).
All statistical analyses were performed with Prism v10.1.0 software (GraphPad Software Inc.). Two-way ANOVA was performed on experiments with two factors of variance (Figs. 1e and 3a). Ordinary one-way ANOVA with multiple comparisons was performed on experiments with one factor of variance (Figs. 2a–e, 3c, 6b, 7b, 8c and Supplementary Fig. 2a). For KD determination, the data from each experiment were cleaned for the hook effect (signal depletion by oversaturation of the beads) and analyzed using the equation one site-specific binding with hill slope (Figs. 1f–i, and Supplementary Fig. 1f). The IC50 was determined using the log(inhibitor) vs. response – variable slope (four parameters) equation (Fig. 8b and d). A paired t-test was used for matched samples (Fig. 8b) and an unpaired t-test was used for unpaired samples (Figs. 7c and 8e).

His-TRAF2_311-501 = experiment: Peptide array, TRAF2 binding; set-up: key to T2 interaction (peptide array): +: Interaction with TRAF6 or TRAF2 isindicated according to the results shown in Figure 1c.; -: Interaction with TRAF6 or TRAF2 isindicated according to the results shown in Figure 1c; details: for T2 interaction (peptide array): immobilized peptide, 10 µg per mL His-TRAF2, 4 h RT, two independent experiments
Method: (§1) Arrays were synthesized on a Multipep Synthesizer (Intavis Bioanalytical Instruments) on derivatized cellulose (amino-Peg500 UC540, acid-hardened, loading 400 nmol per cm^2, Intavis). After peptides were spot-assembled and deprotected, membranes were washed extensively with dichloromethane, N-methylpyrrolidone, and ethanol and stored at −20 °C until use. Prior to use, filters were rinsed for 10 sec in ethanol and washed three times for ten min each at 50 rpm in PBST (PBS, 0.1% Tween-20) under gentle rocking. Filters were blocked by incubation in PBST supplemented with 5% (w/v) nonfat dry milk powder for 2 h at RT and three washing steps in PBST for 20 min. Subsequently, nonspecific antibody binding sites were blocked by incubation of the filters at 4 °C overnight with either TRAF6 (goat α-TRAF6 C-20 #sc-6223, Santa Cruz Biotech.) or TRAF2 primary antibody (rabbit α-TRAF2 C-20, #sc-876, Santa Cruz Biotech.), diluted at 1:1000 in PBS supplemented with 5% (w/v) nonfat dry milk powder. Following three washing steps with PBS, the filters were incubated with horseradish peroxidase-conjugated α-goat IgG (Dianova, #305-035-003) or α-rabbit IgG (Cell signalling Technology, #7074S) secondary antibody, diluted 1:5000 in PBS supplemented with 5% (w/v) nonfat dry milk powder. Filters were developed with ECL and no nonspecific antibody binding was detected. To detect TRAF6 or TRAF2 binding to the immobilized peptides, filters were washed with PBST and subsequently incubated with 10 µg per mL recombinant purified His-TRAF6 or His-TRAF2 protein in PBST supplemented with 5% (w/v) nonfat dry milk powder for 4 h at RT. After washing the filters in PBST, TRAF protein binding was analyzed by incubation of the filters with TRAF6 (C-20, #sc-6223, Santa Cruz Biotech., used at 1:1000) or TRAF2 (C-20, #sc-876, Santa Cruz Biotech., used at 1:1000) primary and the respective Horseradish peroxidase-coupled secondary antibodies (Dianova, #305-035-003, used at 1:500, or Cell Signalling Technology, #7074, used at 1:5000). ECL signals were captured on X-ray films (Agfa Healthcare).

His-TRAF6_310-522 = experiment: Peptide array, TRAF6 binding; set-up: species or system human; key to T6 interaction (peptide array): +: Interaction with TRAF6 or TRAF2 isindicated according to the results shown in Figure 1c.; -: Interaction with TRAF6 or TRAF2 isindicated according to the results shown in Figure 1c; details: for T6 interaction (peptide array): immobilized peptide, 10 µg per mL His-TRAF6, 4 h RT, two independent experiments; for TRAF6 binding to immobilized peptide (in words): peptide array
Method: as §1

His-TRAF6_(310-522) = biological target: T1, His-TRAF6_(310-522) (human, UniProt Q9Y4K3 310-522); experiment: AlphaScreen or HTRF; AlphaScreen PPI assay: His-TRAF and GST-LMP1, GST-CD40 or GST-RANK in PBS with 0.5% BSA and 0.1% Tween-20, 1 h at RT; standard 300 nM His-TRAF and 100 nM GST protein if not indicated otherwise; for KD His-TRAF6 at different concentrations, fit one site-specific binding with hill slope; details: both partners purified
T1 construct: also called His-T6; recombinant TRAF6 wild-type; source: E. coli BL21 Codon Plus RIPL, purified (Ni-NTA)
T1 sequence: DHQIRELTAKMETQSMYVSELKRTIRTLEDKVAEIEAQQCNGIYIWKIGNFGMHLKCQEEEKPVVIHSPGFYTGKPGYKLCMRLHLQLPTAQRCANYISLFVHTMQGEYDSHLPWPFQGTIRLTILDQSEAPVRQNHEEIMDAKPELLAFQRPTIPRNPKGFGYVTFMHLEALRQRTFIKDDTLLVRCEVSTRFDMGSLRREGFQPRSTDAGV

[2] = source data, One site -- Specific binding with Hill slope
[3] = source data, One site -- Specific binding with Hill slope, concentrations c H-T6 in nM, read-out: Kd (best-fit value)

Molecule	h (Hill slope, best-fit value) [1, 2]	Bmax (best-fit value) [1, 2]	T2 interaction (peptide array) (His-TRAF2_311-501)	T6 interaction (peptide array) (His-TRAF6_310-522)	further results
RANK: recombinant GST-RANK314-355 (GGGPYAQGEDARMLSLVSKTEIEEDSFRQMPTEDEYMDRPSQ; also: GST fusion left off, end not given here)	2.024	1370733			Kd [1, 3]: 7.74 nM
GSNTAAPVQETLHGCQPVTQEDGKESRISV [peptide 4, CD40 244-273]			+	-	
KAEAQAINFPDDLPGSNTAAPVQETLHGCQ [peptide 3, CD40 230-259, A231xAxA]			+	-	
PHLPTLLLGSSGSGGDDDDPHGAVALAYYD [peptide 12, LMP1 357-386, A379xAxA]			-	-	TRAF6 binding to immobilized peptide (in words) (His-TRAF6_310-522): abolished the direct TRAF6 binding
2: CD40 230-259, A250xAxA (KQEPQEINFPDDLPGSNTAAAVAEALHGCQ; UniProt P25942 230-259, looked up, variant P250A Q252A T254A) [compound 2]			-	+	
… GDDDDPHGPVQLSYYD [peptide 8, LMP1 371-386 (16mer)]			-	+	TRAF6 binding to immobilized peptide (in words) (His-TRAF6_310-522): efficiently captured
DDSLPHPQQATDDSGHESDSNSNEGRHHLL [peptide 6, LMP1 198-227]			+	-	TRAF2 binding to immobilized peptide (in words) (His-TRAF2_311-501; peptide array): bound; TRAF6 binding to immobilized peptide (in words) (His-TRAF6_310-522): did not bind
PHLPTLLLGSSGSGGDDDDPHGPVQLSYYD [peptide 11, LMP1 357-386 (30mer)]			-	+	TRAF6 binding to immobilized peptide (in words) (His-TRAF6_310-522): efficiently captured
… GDDDDPHGPVQLSAAD [peptide 9, LMP1 371-386, A384A385]			-	-	TRAF6 binding to immobilized peptide (in words) (His-TRAF6_310-522): abolished the direct TRAF6 binding
KQEPQEINFPDDLPGSNTAAPVQETLHGCQ [peptide 1, CD40 amino acids 230-259]			+	+	
GSNTAAAVAEALHGCQPVTQEDGKESRISV [peptide 5, CD40 244-273, A250xAxA]			-	-	
RANK E346Q (GGGPYAQGEDARMLSLVSKTEIEEDSFRQMPTQDEYMDRPSQ; also: GST fusion left off, end not given here)	1.998	1302008			
B1	2.083	1455821			
B2	1.924	1053663			
B3					binding result (His-TRAF6_(310-522)): binds
B4	1.321	1186145			TRAF6 binding/affinity (in words) ([1]; AlphaScreen PPI): improved the affinity of LMP1 for TRAF6; also recorded: higher affinity of Y384F to TRAF6 as compared to wild-type LMP1; Kd ([1]; AlphaScreen PPI, His-TRAF6_310-522 titrated with GST-receptor protein, PBS 0.5% BSA 0.1% Tween-20, 1 h RT, one site-specific binding with hill slope, mean ± SD, n = 3 (CD40), 4 (LMP1), 6 (RANK), read-out: KD of TRAF6 interaction): 21.7 ± 6.6 nM; Kd [1, 3]: 21.7 nM
B5	1.772	1507585			fold enhanced affinity for TRAF6 ([1]; compared with LMP1 wild-type): 5.0 -fold
B6					TRAF6 binding/affinity (in words) ([1]; AlphaScreen PPI): TRAF6 binding was not abolished; reduction of affinity to TRAF6 (factor) ([1]; compared with the respective wild-type receptor): 1.8; Kd ([1]; one site, specific binding with Hill slope, c H-T6 in nM, hook effect data excluded, 95% CI A204xAxA 52,94 to 93,02, Y384D 72,59 to 190,2, read-out: Kd): 131 nM; h (Hill slope) ([1]; one site, specific binding with Hill slope, hook effect data excluded, Std. Error A204xAxA 0.2126, Y384D 0.1712): 1.019; Bmax ([1]; one site, specific binding with Hill slope, hook effect data excluded, Std. Error A204xAxA 67298, Y384D 78225): 1231417
B7					binding result (His-TRAF6_(310-522)): binds
